Laboratory results published in patent publication US20160115540A1, “PRODRUGS AND DRUGS” (Biogen MA Inc., priority 2013, published 2016).
Where a name gives a salt, the structure may show the parent alone.

Tested on: spleen
Assay: Transcriptional profiling on Affymetrix GeneChips, single dose, naïve mice: spleen
Type: in vivo, C57BL/6 mice
Conditions: for Number of differentially expressed genes identified: Spleen: Naïve, Single Dose; for FC Pdia4 (protein disulfide isomerase associated 4): probe 1416497_PM_at; for FC Aox1 (aldehyde oxidase 1): probe 1419435_PM_at; for FC Osgin1 (oxidative stress induced growth inhibitor 1): probe 1424022_PM_at; for FC Kirrel (kin of IRRE like (Drosophila)): probe 1434797_PM_at; for FC 9130221J17Rik (RIKEN cDNA 9130221J17 gene): probe 1443159_PM_at; for Number of genes, DMF Only / MMF Only: Spleen
Protocol: Treated mice were sacrificed at 2, 7, or 12 hours. Tissues (liver, spleen, kidney, jejunum, cortex, hippocampus, striatum and whole blood) were collected and analyzed by transcriptional profiling on mouse Affymetrix GeneChips.
Tissues (liver, spleen, kidney, jejunum, cortex, hippocampus, striatum and whole blood) were collected and analyzed by transcriptional profiling on mouse Affymetrix GeneChips.
Animals were exposed to CO2 and whole blood collected via cardiac puncture. Two 100 μl aliquots of whole blood were collected in 1.5 mL microcentrifuge tubes and snap frozen in liquid nitrogen. Peripheral (liver, spleen, kidney and jejunum) and CNS brain (cerebellum, hippocampus, striatum and cortex) tissues were harvested and snap frozen in liquid nitrogen, with special care taken to collect tissues of similar size and from the same location. All samples were stored at −80° C. until RNA extraction was conducted.
For RNA preparation, frozen tissues were placed in 2 mL RNAse-free 96-well blocks with 1.5 mL QIAzol Lysis Reagent (QIAgen) and a 3.2 mm stainless steel bead (BioSpec Products, Bartlesville, Okla.). Tissues were disrupted for four cycles of 45 seconds in a Mini-Beadbeater (Biospec Products). RNA was extracted in chloroform and the aqueous phase was mixed with an equal volume of 70% ethanol. Extracted RNA was applied to RNeasy 96 plates and purified by the spin method according to the manufacturer's protocol (RNeasy 96 Universal Tissue Protocol, QIAgen, Hilden Germany).
Automated sample amplifications and biotin labelings were carried out using the NuGEN Ovation RNA Amplification system V2 (Cat #3100), Ovation WB reagent (Cat #1300) and Encore Biotin module (Cat #4200) (NuGEN Technologies, Inc, San Carlos, Calif.) according to manufacturer's recommendations using an Arrayplex automated liquid handler (Beckman Coulter, Indianapolis, Ind.). Two micrograms of biotin labeled sscDNA probe were hybridized to Affymetrix GeneChip Affymetrix HT_MG-430_PM plate arrays with modified conditions as described in Allaire et al. Washing and staining of the hybridized arrays were completed as described in the GeneChip Expression analysis technical manual for HT plate arrays using the Genechip® Array Station (Affymetrix, Santa Clara, Calif.) with modifications as described in Allaire et al. The processed GeneChip® plate arrays were scanned using GeneTitan scanner (Affymetrix, Santa Clara, Calif.).
Affymetrix scans were subject to quality control (QC) measures. These tests included a visual inspection of the distribution of raw signal intensities and an assessment of RNA degradation, relative log expression (RLE), and normalized unsealed standard error (NUSE). All sample scans that passed these QC metrics were included in the analysis.
All CEL files were subjected to GC-content-based Robust Multi-array Average (GCRMA) normalization (version 2.20.0) (Irizarry R A, et al. Nucleic Acids Res 2003; 31:e15; Li C, et al. Genome Biol 2001; 2:[…]0032). Expression levels were log (base 2) transformed.
All calculations and analyses were carried out using R (version 2.11.1) and Bioconductor computational tools (Gentleman R. Springer Science+Business Media 2005).

[1] = 100 mpk, vs Vehicle, 2 h after last dosing
[2] = 100 mpk, vs Vehicle, 7 h after last dosing
[3] = 100 mpk, vs Vehicle, 12 h after last dosing

SMILES: COC(=O)/C=C/C(=O)OC [DMF, dimethyl fumarate]
- Number of differentially expressed genes identified: Spleen (100 mpk DMF-vs-100 mpk MMF, 2 h after last dosing): 0
- Number of differentially expressed genes identified: Spleen (100 mpk DMF-vs-100 mpk MMF, 7 h after last dosing): 0
- Number of differentially expressed genes identified: Spleen (100 mpk DMF-vs-100 mpk MMF, 12 h after last dosing): 0
- Number of differentially expressed genes identified: Spleen [1]: 13
- Number of differentially expressed genes identified: Spleen [2]: 2
- Number of differentially expressed genes identified: Spleen [3]: 0
- genes in differential expression gene list (SPLEEN, 100DMF-vs-100MMF, 2 h): None
- genes in differential expression gene list (SPLEEN, 100DMF-vs-100MMF, 7 h): None
- genes in differential expression gene list (SPLEEN, 100DMF-vs-100MMF, 12 h): None
- FC Pdia4 (protein disulfide isomerase associated 4) (SPLEEN, 100DMF-vs-Veh, 2 h): −1.60
- FC Aox1 (aldehyde oxidase 1) (SPLEEN, 100DMF-vs-Veh, 2 h): 2.61
- FC Srxn1 (sulfiredoxin 1 homolog (S. cerevisiae)) (SPLEEN, 100DMF-vs-Veh, 2 h, probe 1419942_PM_at): 2.16
- FC Txnrd1 (thioredoxin reductase 1) (SPLEEN, 100DMF-vs-Veh, 2 h, probe 1421529_PM_a_at): 1.55
- FC Osgin1 (oxidative stress induced growth inhibitor 1) (SPLEEN, 100DMF-vs-Veh, 2 h): 1.78
- FC Gclc (glutamate-cysteine ligase, catalytic subunit) (SPLEEN, 100DMF-vs-Veh, 2 h, probe 1424296_PM_at): 1.76
- FC Txnrd1 (thioredoxin reductase 1) (SPLEEN, 100DMF-vs-Veh, 2 h, probe 1424486_PM_a_at): 2.41
- FC Txnrd1 (thioredoxin reductase 1) (SPLEEN, 100DMF-vs-Veh, 2 h, probe 1424487_PM_x_at): 1.73
- FC Srxn1 (sulfiredoxin 1 homolog (S. cerevisiae)) (SPLEEN, 100DMF-vs-Veh, 2 h, probe 1426875_PM_s_at): 2.02
- FC Kirrel (kin of IRRE like (Drosophila)) (SPLEEN, 100DMF-vs-Veh, 2 h): −1.54
- FC 9130221J17Rik (RIKEN cDNA 9130221J17 gene) (SPLEEN, 100DMF-vs-Veh, 2 h): 1.52
- FC Mafg (v-maf musculoaponeurotic fibrosarcoma oncogene family, protein G (avian)) (SPLEEN, 100DMF-vs-Veh, 2 h, probe 1448916_PM_at): 1.58
- FC Srxn1 (sulfiredoxin 1 homolog (S. cerevisiae)) (SPLEEN, 100DMF-vs-Veh, 2 h, probe 1451680_PM_at): 1.53
- FC Srxn1 (sulfiredoxin 1 homolog (S. cerevisiae)) (SPLEEN, 100DMF-vs-Veh, 7 h, probe 1419942_PM_at): 1.67
- FC Srxn1 (sulfiredoxin 1 homolog (S. cerevisiae)) (SPLEEN, 100DMF-vs-Veh, 7 h, probe 1426875_PM_s_at): 1.50
- Number of genes, DMF Only / MMF Only: 2
- Aox1 (probe set 1419435_PM_at) differential expression (spleen, 2 hr): 2.61
- Gclc (probe set 1424296_PM_at) differential expression (spleen, 2 hr): 1.76
- Kirrel (probe set 1434797_PM_at) differential expression (spleen, 2 hr): −1.54
- Mafg (probe set 1448916_PM_at) differential expression (spleen, 2 hr): 1.58
- Osgin1 (probe set 1424022_PM_at) differential expression (spleen, 2 hr): 1.78
- Pdia4 (probe set 1416497_PM_at) differential expression (spleen, 2 hr): −1.60
- Srxn1 (probe set 1419942_PM_at) differential expression (spleen, 2 hr): 2.16
- Txnrd1 (probe set 1424486_PM_a_at) differential expression (spleen, 2 hr): 2.41
- Srxn1 (probe set 1419942_PM_at) differential expression (spleen, 7 hr): 1.67
- genes in differential expression gene list (spleen, 100DMF-vs-Veh, 12 h): None

SMILES: COC(=O)/C=C/C(=O)O [MMF, monomethyl fumarate]
- Number of differentially expressed genes identified: Spleen [1]: 12
- Number of differentially expressed genes identified: Spleen [2]: 2
- Number of differentially expressed genes identified: Spleen [3]: 0
- FC Pdia4 (protein disulfide isomerase associated 4) (SPLEEN, 100MMF-vs-Veh, 2 h): −1.59
- FC Aox1 (aldehyde oxidase 1) (SPLEEN, 100MMF-vs-Veh, 2 h): 2.35
- FC Srxn1 (sulfiredoxin 1 homolog (S. cerevisiae)) (SPLEEN, 100MMF-vs-Veh, 2 h, probe 1419942_PM_at): 2.02
- FC Txnrd1 (thioredoxin reductase 1) (SPLEEN, 100MMF-vs-Veh, 2 h, probe 1421529_PM_a_at): 1.53
- FC Osgin1 (oxidative stress induced growth inhibitor 1) (SPLEEN, 100MMF-vs-Veh, 2 h): 1.83
- FC Txnrd1 (thioredoxin reductase 1) (SPLEEN, 100MMF-vs-Veh, 2 h, probe 1424486_PM_a_at): 2.14
- FC Srxn1 (sulfiredoxin 1 homolog (S. cerevisiae)) (SPLEEN, 100MMF-vs-Veh, 2 h, probe 1426875_PM_s_at): 1.92
- FC 6330406I15Rik (RIKEN cDNA 6330406I15 gene) (SPLEEN, 100MMF-vs-Veh, 2 h, probe 1426937_PM_at): −1.58
- FC Kirrel (kin of IRRE like (Drosophila)) (SPLEEN, 100MMF-vs-Veh, 2 h): −1.65
- FC Armc8 (armadillo repeat containing 8) (SPLEEN, 100MMF-vs-Veh, 2 h, probe 1434951_PM_at): −1.54
- FC 9130221J17Rik (RIKEN cDNA 9130221J17 gene) (SPLEEN, 100MMF-vs-Veh, 2 h): 1.55
- FC probe 1446490_PM_at (no gene named) (SPLEEN, 100MMF-vs-Veh, 2 h, probe 1446490_PM_at): −1.76
- FC Srxn1 (sulfiredoxin 1 homolog (S. cerevisiae)) (SPLEEN, 100MMF-vs-Veh, 7 h, probe 1419942_PM_at): 1.87
- FC Srxn1 (sulfiredoxin 1 homolog (S. cerevisiae)) (SPLEEN, 100MMF-vs-Veh, 7 h, probe 1426875_PM_s_at): 1.69
- Number of genes, DMF Only / MMF Only: 3
- Aox1 (probe set 1419435_PM_at) differential expression (spleen, 2 hr): 2.35
- Armc8 (probe set 1434951_PM_at) differential expression (spleen, 2 hr): −1.54
- Kirrel (probe set 1434797_PM_at) differential expression (spleen, 2 hr): −1.65
- Osgin1 (probe set 1424022_PM_at) differential expression (spleen, 2 hr): 1.83
- Paip1 (probe set 1425521_PM_at) differential expression (spleen, 2 hr): −1.56
- Pdia4 (probe set 1416497_PM_at) differential expression (spleen, 2 hr): −1.59
- Rod1 (probe set 1424084_PM_at) differential expression (spleen, 2 hr): −1.54
- Srxn1 (probe set 1419942_PM_at) differential expression (spleen, 2 hr): 2.02
- Txnrd1 (probe set 1424486_PM_a_at) differential expression (spleen, 2 hr): 2.14
- Srxn1 (probe set 1419942_PM_at) differential expression (spleen, 7 hr): 1.87
- Srxn1 mRNA fold change vs vehicle (spleen, 2 hr after single 100 mg/kg oral dose): 1.87
